Data from PubChem BioAssay AID1963854 (Molecular Pharmacology Branch, DTP, NCI, 2024).

Test system: 186277-243-T-J2-PDC complex spheroid viability
Assay: Anticancer human tumor 186277-243-T-J2-PDC patient-derived colon adenocarcinoma cell line growth inhibition [POLQ]
Settings: for IC50: curve of first compound; for viability, T/C: stronger effect = lower value
Protocol: Multicellular complex tumor spheroid response to Polymerase (POL) inhibitors (novobiocin, ART-558, RP6685) in combination with a variety of drugs and investigational agents in selected tumor cell lines
The POL inhibitors (novobiocin, ART-558, and RP6685) were evaluated both individually and in combination with standard of care and investigational anticancer small molecules within a complex spheroid model of solid tumors. . Complex spheroids include a stromal component modeled by human endothelial cells (HUVEC) and fibroblasts modeled by human mesenchymal stem cells (MSCs). The concentration ranges selected for each drug and investigational agent were based upon clinically achievable concentrations if the clinical Cmax of the agent was known.
Compounds. The drugs and investigational agents: novobiocin (NSC847541), ART-558 (NSC835418), RP-6685 (NSC848927), peposertib (NSC802822), ceralasertib (NSC780249), elimusertib (NSC800525), camonsertib (NSC841442), AZD-1390 (NSC803789), olaparib (NSC753686), talazoparib (NSC767125), rucaparib (NSC756644), sotorasib (NSC818433), MRTX-1133 (NSC836407), SN-38 (NSC673596), topotecan (NSC609699), epotoside (NSC141540), doxorubicin (NSC123127), gemcitabine (NSC613327), 5-fluorouracil (NSC19893), paclitaxel (NSC125973), vemurafenib (NSC761431), MSA-2 (NSC828583), SN-011 (NSC837082), adavosertib (NSC754352), prexasertib (NSC758257), carboplatin (NSC241240) and oxaliplatin (NSC266046), were obtained from the National Cancer Institute (NCI) Developmental Therapeutics Program Chemical Repository (21). The FDA-approved anticancer drug set is available from the Developmental Therapeutics Program at https://dtp.cancer.gov/organization/dscb/obtaining/. […] The stock solutions were prepared in dimethyl sulfoxide (DMSO, Sigma-Aldrich, St. Louis, MO, cat. D2650), except for the platinum compounds which were prepared in saline (Quality Biological, Gaithersburg, MD, cat. 114-055-101), at 800-fold the tested concentration and stored at -70 degrees C prior to their use. All drugs and investigational agents were tested over a range starting from a high concentration at or near the clinical Cmax and decreasing in half-log increments. If the clinical Cmax for an agent had not been determined, the highest concentration tested was 10 microM, except for SN-38, which was tested at a high concentration of 1 microM.
Cell Culture. All cells were maintained in an incubator at 37 degrees C and 5% CO2 with 95% humidity. The PDC lines were cultured according to standard operating procedures established by the NCI PDMR (https://pdmr.cancer.gov). Table 3 of the manuscript, lists the cell lines along with the number of the three cell types plated to form the mct-spheroids and media for tumor cell growth. After thawing, all PDC lines, except 997537-175-T-J1-PDC and 415267-285-R-J2-PDC, were cultured in Matrigel-coated flasks prepared with a working solution of 1X Ham's F-12 nutrient mix, without supplementation (Thermo Fisher Scientific, cat. 11765054), 100 U/mL penicillin-streptomycin (Thermo Fisher Scientific, cat. 15140122), and 2.5% Matrigel (Corning Inc., Corning, NY, cat. 354248) for the first three passages. The two PDC lines 997537-175-T-J1-PDC and 415267-285-R-J2-PDC were cultured on uncoated flasks. The 857933-349-R-J2-PDC line was cultured in 6C/Colon 1B media containing advanced DMEM/F-12 (Thermo Fisher Scientific, cat. 12634028), 10 mM HEPES (Thermo Fisher Scientific, cat. 15630080), 1X GlutaMAX supplement (Thermo Fisher Scientific, cat. 35050061), 0.1 mg/mL primocin (InvivoGen, San Diego, CA, cat. ant-pm-2), 10% defined fetal bovine serum, heat inactivated (HyClone Laboratories Inc., Logan, UT, cat. SH30070.03HI), 50% L-WRN conditioned media (ATCC, cat. CRL-3276), 1.25 mM N-Acetyl-L-cysteine (Sigma-Aldrich, cat. A9165), 10 mM nicotinamide (Sigma-Aldrich, cat. N0636), 1X B-27 supplement (Thermo Fisher Scientific, cat. 17504044), 1X N-2 supplement (Thermo Fisher Scientific, cat. […]

[1] = second compound 0.0316 µM, first compound 0.0316 µM
[2] = second compound 0.0316 µM, first compound 0.1 µM
[3] = second compound 0.0316 µM, first compound 0.316 µM
[4] = second compound 0.0316 µM, first compound 1 µM
[5] = second compound 0.0316 µM, first compound 3.16 µM
[6] = second compound 0.0316 µM, first compound 10 µM
[7] = second compound 0.1 µM, first compound 0.0316 µM
[8] = second compound 0.1 µM, first compound 0.1 µM
[9] = second compound 0.1 µM, first compound 0.316 µM
[10] = second compound 0.1 µM, first compound 1 µM
[11] = second compound 0.1 µM, first compound 3.16 µM
[12] = second compound 0.1 µM, first compound 10 µM
[13] = second compound 0.316 µM, first compound 0.0316 µM
[14] = second compound 0.316 µM, first compound 0.1 µM
[15] = second compound 0.316 µM, first compound 0.316 µM
[16] = second compound 0.316 µM, first compound 1 µM
[17] = second compound 0.316 µM, first compound 3.16 µM
[18] = second compound 0.316 µM, first compound 10 µM
[19] = second compound 1 µM, first compound 0.0316 µM
[20] = second compound 1 µM, first compound 0.1 µM
[21] = second compound 1 µM, first compound 0.316 µM
[22] = second compound 1 µM, first compound 1 µM
[23] = second compound 1 µM, first compound 3.16 µM
[24] = second compound 1 µM, first compound 10 µM
[25] = second compound 3.16 µM, first compound 0.0316 µM
[26] = second compound 3.16 µM, first compound 0.1 µM
[27] = second compound 3.16 µM, first compound 0.316 µM
[28] = second compound 3.16 µM, first compound 1 µM
[29] = second compound 3.16 µM, first compound 3.16 µM
[30] = second compound 3.16 µM, first compound 10 µM
[31] = second compound 10 µM, first compound 0.0316 µM
[32] = second compound 10 µM, first compound 0.1 µM
[33] = second compound 10 µM, first compound 0.316 µM
[34] = second compound 10 µM, first compound 1 µM
[35] = second compound 10 µM, first compound 3.16 µM
[36] = second compound 10 µM, first compound 10 µM
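Note: spheroids exposed to compounds for seven days.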
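Throughout, for viability, T/C: 100% = DMSO vehicle control viability.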

Nc1ccn(C2OC(CO)C(O)C2(F)F)c(=O)n1 (centres undefined) + COC1C(OC(N)=O)C(O)C(Oc2ccc3c(O)c(NC(=O)c4ccc(O)c(CC=C(C)C)c4)c(=O)oc3c2C)OC1(C)C
IC50 (second compound 0.0316 µM): < 0.0316 µM
IC50 (second compound 0.1 µM): < 0.0316 µM
IC50 (second compound 0.316 µM): < 0.0316 µM
IC50 (second compound 1 µM): < 0.0316 µM
IC50 (second compound 3.16 µM): < 0.0316 µM
IC50 (second compound 10 µM): < 0.0316 µM
viability, T/C [1]: 7.44%
viability, T/C [2]: 5.74%
viability, T/C [3]: 6.22%
viability, T/C [4]: 6.52%
viability, T/C [5]: 5.93%
viability, T/C [6]: 5.3%
viability, T/C [7]: 7.07%
viability, T/C [8]: 5.49%
viability, T/C [9]: 6.25%
viability, T/C [10]: 6.16%
viability, T/C [11]: 7.16%
viability, T/C [12]: 5.7%
viability, T/C [13]: 6.61%
viability, T/C [14]: 5.95%
viability, T/C [15]: 6.28%
viability, T/C [16]: 6.18%
viability, T/C [17]: 6.62%
viability, T/C [18]: 5.63%
viability, T/C [19]: 6.65%
viability, T/C [20]: 5.29%
viability, T/C [21]: 5.98%
viability, T/C [22]: 6.8%
viability, T/C [23]: 6.08%
viability, T/C [24]: 5.74%
viability, T/C [25]: 5.98%
viability, T/C [26]: 5.52%
viability, T/C [27]: 5.91%
viability, T/C [28]: 5.81%
viability, T/C [29]: 7.8%
viability, T/C [30]: 5.79%
viability, T/C [31]: 6.27%
viability, T/C [32]: 5.86%
viability, T/C [33]: 6.51%
viability, T/C [34]: 6.65%
viability, T/C [35]: 7.8%
viability, T/C [36]: 5.54%

O=C(c1cc(Cc2n[nH]c(=O)c3ccccc23)ccc1F)N1CCN(C(=O)C2CC2)CC1 + COC1C(OC(N)=O)C(O)C(Oc2ccc3c(O)c(NC(=O)c4ccc(O)c(CC=C(C)C)c4)c(=O)oc3c2C)OC1(C)C
IC50 (second compound 0.0316 µM): > 10 µM
IC50 (second compound 0.1 µM): > 10 µM
IC50 (second compound 0.316 µM): > 10 µM
IC50 (second compound 1 µM): > 10 µM
IC50 (second compound 3.16 µM): > 10 µM
IC50 (second compound 10 µM): > 10 µM
viability, T/C [1]: 117%
viability, T/C [2]: 105%
viability, T/C [3]: 106%
viability, T/C [4]: 92.3%
viability, T/C [5]: 123%
viability, T/C [6]: 66.7%
viability, T/C [7]: 98.7%
viability, T/C [8]: 102%
viability, T/C [9]: 95%
viability, T/C [10]: 97.3%
viability, T/C [11]: 119%
viability, T/C [12]: 63.2%
viability, T/C [13]: 98.5%
viability, T/C [14]: 111%
viability, T/C [15]: 109%
viability, T/C [16]: 94%
viability, T/C [17]: 109%
viability, T/C [18]: 66.1%
viability, T/C [19]: 90.7%
viability, T/C [20]: 101%
viability, T/C [21]: 109%
viability, T/C [22]: 102%
viability, T/C [23]: 107%
viability, T/C [24]: 65.9%
viability, T/C [25]: 101%
viability, T/C [26]: 105%
viability, T/C [27]: 114%
viability, T/C [28]: 90.1%
viability, T/C [29]: 103%
viability, T/C [30]: 63.9%
viability, T/C [31]: 101%
viability, T/C [32]: 91.6%
viability, T/C [33]: 101%
viability, T/C [34]: 115%
viability, T/C [35]: 126%
viability, T/C [36]: 66.2%
